## C[C@H](NC(=O)Cc1cc(F)cc(F)c1)C(=O)NC1C(=O)NC(c2ccccn2)c2ccccc21 (stereo partly drawn) [Example 5-37, 4-(N′-(3,5-Difluorophenylacetyl)-L-alaninyl)amino-1-(pyrid-2-yl)-1,2,3,4-tetrahydroisoquinolin-3-one]
  melting point: 100 °C

## CC(C)[C@H](NC(=O)Cc1cc(F)cc(F)c1)C(=O)NC1N=C(c2ccccc2)c2ccccc2N(C)C1=O (some centres unmarked)
  melting point: 228 to 229 °C

## CCC(=S)N[C@@H](C)C(=O)NC1N=C(c2ccccc2)c2ccccc2N(C)C1=O (some centres unmarked)
  melting point: 205 to 206 °C

## C[C@H](NC(=O)Cc1cc(F)cc(F)c1)C(=O)NC1C(=O)NC(c2ccccc2)c2ccccc21 (single isomer, unassigned) [Example 5-10, 4-(N′-(3,5-Difluorophenylacetyl)-L-alaninyl)amino-1-phenyl-1,2,3,4tetrahydroisoquinolin-3-one]
  melting point: 200 to 205 °C

## C[C@H](NC(=O)C(O)C1CCCC1)C(=O)NC1C(=O)N(CC(C)(C)C)c2ccccc2N(CC(C)(C)C)C1=O (stereo partly drawn) [Example 8-162, 3-[N′-(Cyclopentyl-α-hydroxyacetyl)-L-alaninyl]amino-2,4-dioxo-1,5-bis-(2,2-dimethylpropyl)-2,3,4,5-tetrahydro-1H-1,5-benzodiazepine]
  melting point: 119 to 129 °C

## C[C@H](NC(=O)C(O)c1cc(F)cc(F)c1)C(=O)NC1C(=O)N(C)c2ccccc2N(c2ccccc2)C1=O (single isomer, unassigned)
  melting point: 255 to 256 °C

## COC(=O)[C@@H](NC(=O)CC1CCCC1)c1ccccc1 [Example B77, N-(Cyclopentylacetyl)-L-phenylglycine Methyl Ester]
  melting point: 83 to 86 °C

## C[C@H](NC(=O)Cc1cc(F)cc(F)c1)C(=O)NC1C(=O)N(C)Cc2ccccc21 (stereo partly drawn) [Example 5-14, 4-(N′-(3,5-Difluorophenylacetyl)-L-alaninyl)amino-2-methyl-1,2,3,4-tetrahydroisoquinolin-3-one]
  melting point: 174 to 175 °C

## C[C@H](NC(=O)Cc1cc(F)cc(F)c1)C(=O)NC1C(=O)N(C)c2ccccc2N(C)C1=O [Example 8-150, 3-[N′-(3,5-Difluorophenylacetyl)-L-alaninyl]amino-2,4-dioxo-1,5-bis-methyl-2,3,4,5-tetrahydro-1H-1,5-benzodiazepine]
  melting point: 206 to 207 °C

## CN1C(=O)C(NC(=O)[C@@H](NC(=O)Cc2cc(F)cc(F)c2)C(C)(C)C)N=C(c2ccccc2)c2ccccc21 (some centres unmarked)
  melting point: 221 to 222 °C

## CC(C)COC(=O)[C@H](C)NC(=O)CC1=CCCCC1 [Example B72, N-[(Cyclohex-1-enyl)acetyl]-L-alanine iso-Butyl Ester]
  melting point: 49 to 51 °C

## C[C@H](NC(=O)Cc1cc(F)cc(F)c1)C(=O)NC1C(=O)NCc2cc(-c3ccccc3)ccc21 (stereo partly drawn) [Example 5-16, 4-(N′-(3,5-Difluorophenylacetyl)-L-alaninyl)amino-7-phenyl-1,2,3,4-tetrahydroisoquinolin-3-one]
  melting point: > 240 °C (dec.)

## CCOC(=O)[C@H](C)NC(=O)Cc1cc(F)cc(F)c1 [Example B64, N-[(3,5-Difluorophenyl)acetyl]alanine Ethyl Ester]
  melting point: 93 to 95 °C

## CC(C)N1C(=O)C(NC(=O)[C@H](C)NC(=O)Cc2cc(F)cc(F)c2)C(=O)N(C(C)C)c2ccccc21 [Example 8-146, 3-[N′-(3,5-Difluorophenylacetyl)-L-alaninyl]amino-2,4-dioxo-1,5-bis-(1-methylethyl)-2,3,4,5-tetrahydro-1H-1,5-benzodiazepine]
  melting point: 232 to 233 °C

## CC(C)COC(=O)[C@H](C)NC(=O)CC1CCCCC1 [Example B70, N-(Cyclohexylacetyl)-L-alanine iso-Butyl Ester]
  melting point: 92 to 93 °C

## CC1NC(=O)C(NC(=O)[C@H](C)NC(=O)Cc2cc(F)cc(F)c2)c2ccccc21 (stereo partly drawn) [Example 5-9, 4-(N′-(3,5-Difluorophenylacetyl)-L-alaninyl)amino-1-methyl-1,2,3,4-tetrahydroisoquinolin-3-one]
  melting point: 205 to 206 °C

## CC(C)CN1C(=O)C(NC(=O)[C@H](C)NC(=O)Cc2cc(F)cc(F)c2)C(=O)N(CC(C)C)c2ccccc21 [Example 8-152, 3-[N′-(3,5-Difluorophenylacetyl)-L-alaninyl]amino-2,4-dioxo-1,5-bis-(2-methylpropyl)-2,3,4,5-tetrahydro-1H-1,5-benzodiazepine]
  melting point: 197 to 198 °C

## C[C@H](NC(=O)Cc1cc(F)cc(F)c1)C(=O)NC1C(=O)NCc2cc(Cc3ccccc3)ccc21 (stereo partly drawn) [Example 5-34, 4-(N′-(3,5-Difluorophenylacetyl)-L-alaninyl)amino-7-benzyl-1,2,3,4-tetrahydroisoquinolin-3-one]
  melting point: 159 to 166 °C

## C[C@H](NC(=O)Cc1cc(F)cc(F)c1)C(=O)N[C@@H]1CSc2ccccc2N(C)C1=O [Example 6-12, 3-(S)-(N′-(3,5-Difluorophenylacetyl)-L-alaninyl)amino-1-methyl-5-thia-1,3,4,5-tetrahydro-2H-1-benzazepin-2-one]
  melting point: 156 to 159 °C

## CC(C)COC(=O)[C@H](C)NC(=O)CC1CCCC1 [Example B71, N-(Cyclopentylacetyl)-L-alanine iso-Butyl Ester]
  melting point: 62 to 64 °C

## C[C@H](NC(=O)Cc1cc(F)cc(F)c1)C(=O)NC1C(=O)N(Cc2ccccc2)Cc2ccccc21 (stereo partly drawn) [Example 5-8, 4-(N′-(3,5-Difluorophenylacetyl)-L-alaninyl)amino-2-benzyl-1,2,3,4-tetrahydroisoquinolin-3-one]
  melting point: 144 to 145 °C

## CN1C(=O)C(NC(=O)Cc2cc(F)cc(F)c2)N=C(c2ccccc2)c2ccccc21 (centres unmarked)
  melting point: 236 to 239 °C

## C[C@H](NC(=O)Cc1cc(F)cc(F)c1)C(=O)NC1CCCCCNC(=O)C1 (stereo partly drawn) [Example 5-33, 3-(N′-(3,5-Difluorophenylacetyl)-L-alaninyl)amino-8-octanelactam]
  melting point: > 220 °C

## C[C@H](NC(=O)Cc1cc(F)cc(F)c1)C(=O)NC1C(=O)NCc2ccccc21 (stereo partly drawn) [Example 5-7, 4-(N′-(3,5-Difluorophenylacetyl)-L-alaninyl)amino-1,2,3,4-tetrahydroisoquinolin-3-one]
  melting point: 243 to 244 °C

## C[C@H](NC(=O)Cc1cc(F)cc(F)c1)C(=O)NC1N=C(c2ccccc2)c2ccccc2N(CC2CC2)C1=O (some centres unmarked)
  melting point: 203 to 205 °C

## C[C@H](NC(=O)Cc1ccccc1)C(=O)NC1CCCNC(=O)C1 (stereo partly drawn) [Example 5-18, 3-(N′-(Phenylacetyl)-L-alaninyl)amino-ε-caprolactam]
  melting point: 200 to 202 °C

## CC(Nc1ccc(Cl)c(Cl)c1)C(=O)NC1CCCNC(=O)C1 (racemic) [Example 5-31, 3-(N′-(3,4-Dichlorophenyl)-D,L-alaninyl)amino-ε-caprolactam]
  melting point: 199 °C

## C[C@H](NC(=O)Cc1cc(F)cc(F)c1)C(=O)NC1C(=O)NC(c2ccncc2)c2ccccc21 (stereo partly drawn) [Example 5-39, 4-(N′-(3,5-Difluorophenylacetyl)-L-alaninyl)amino-1-(pyrid-4-yl)-1,2,3,4-tetrahydroisoquinolin-3-one]
  melting point: 100 °C

## C[C@H](NC(=O)Cc1cc(F)cc(F)c1)C(=O)NC1Cc2ccccc2N(Cc2ccccc2)C1=O (stereo partly drawn) [Example 5-6, 1-Benzyl-3-(N′-(3,5-difluorophenylacetyl)-L-alaninyl)amino-1,2,3,4-tetrahydroquinolin-2-one]
  melting point: 196 to 199 °C

## CCN1C(=O)C(NC(=O)[C@H](C)NC(=O)Cc2cc(F)cc(F)c2)N=C(c2ccccc2)c2ccccc21 (some centres unmarked)
  melting point: 155 to 158 °C

## C[C@H](NC(=O)Cc1cc(F)cc(F)c1)C(=O)NC1C(=O)NC(Cc2ccccc2)c2ccccc21 (stereo partly drawn) [Example 5-35, 4-(N′-(3,5-Difluorophenylacetyl)-L-alaninyl)amino-1-benzyl-1,2,3,4-tetrahydroisoquinolin-3-one]
  melting point: 106 to 107 °C

## CC1CC(NC(=O)[C@H](C)NC(=O)Cc2cc(F)cc(F)c2)C(=O)N(C)c2ccccc21 (stereo partly drawn) [Example 6-8, 3-(N′-(3,5-Difluorophenylacetyl)-L-alaninyl)amino-1,5-dimethyl-1,3,4,5-tetrahydro-2H-1-benzazepin-2-one]
  melting point: 115 to 119 °C

## C[C@H](NC(=O)C(O)c1cc(F)cc(F)c1)C(=O)NC1N=C(c2ccccc2)c2ccccc2N(C)C1=O (single isomer, unassigned)
  melting point: 240 to 241 °C

## C[C@H](NC(=O)C(=O)c1cc(F)cc(F)c1)C(=O)NC1N=C(c2ccccc2)c2ccccc2N(C)C1=O (some centres unmarked)
  melting point: 128 to 129 °C

## C[C@H](NC(=O)Cc1cc(F)cc(F)c1)C(=O)NC1C(=O)NCc2cc(F)ccc21 (single isomer, unassigned) [Example 5-12, 4(N′-(3,5-Difluorophenylacetyl)-L-alaninyl)amino-7-fluoro-1,2,3,4tetrahydroisoquinolin-3-one]
  melting point: 195 to 200 °C

## CCN1C(=O)[C@@H](NC(=O)[C@H](C)NC(=O)Cc2cc(F)cc(F)c2)COc2ccccc21 [Example 6-11, 3-(S)-(N′-(3,5-Difluorophenylacetyl)-L-alaninyl)amino-1-ethyl-5-oxa-1,3,4,5-tetrahydro-2H-1-benzazepin-2-one]
  melting point: 188 to 191 °C

## C[C@H](NC(=O)C(F)c1cc(F)cc(F)c1)C(=O)NC1N=C(c2ccccc2)c2ccccc2N(C)C1=O (single isomer, unassigned)
  melting point: 119 to 120 °C

## CC1CC(NC(=O)Cc2cc(F)cc(F)c2)C(=O)N(C)c2ccccc21 (centres unmarked) [Example 6-9, 3-(3,5-Difluorophenylacetyl)amino-1,5-dimethyl-1,3,4,5-tetrahydro-2H-1-benzazepin-2-one]
  melting point: 185 to 187 °C

## C[C@H](NC(=O)Cc1cc(F)cc(F)c1)C(=O)N[C@H]1COc2ccccc2N(C)C1=O [Example 6-10, 3-(S)-(N′-(3,5-Difluorophenylacetyl)-L-alaninyl)amino-1-methyl-5-oxa-1,3,4,5-tetrahydro-2H-1-benzazepin-2-one]
  melting point: 110 to 114 °C

## C[C@H](NC(=O)Cc1cc(F)cc(F)c1)C(=O)NC1C(=O)NC(c2cccnc2)c2ccccc21 (stereo partly drawn) [Example 5-38, 4-(N′-(3,5-Difluorophenylacetyl)-L-alaninyl)amino-1-(pyrid-3-yl)-1,2,3,4-tetrahydroisoquinolin-3-one]
  melting point: 100 to 120 °C

## C[C@H](NC(=O)Cc1cc(F)cc(F)c1)C(=O)NC1C(=O)N(CCc2ccccc2)Cc2ccccc21 (stereo partly drawn) [Example 5-13, 4-(N′-(3,5-Difluorophenylacetyl)-L-alaninyl)amino-2-phenethyl-1,2,3,4-tetrahydroisoquinolin-3-one]
  melting point: 75 to 76 °C

— US6653303B1, “Cycloalkyl, lactam, lactone and related compounds, pharmaceutical compositions comprising same, and methods for inhibiting β-amyloid peptide release and/or its synthesis by use of such compounds” (Athena Neurosciences, Inc., priority 1996, dated 2003)
